Several values for one entry are separate records, joined by “and”; a condition that tells them apart may be missing. Equal entries are not always repeated. Inconclusive results and toxic doses are left out.
Test system: BDF1 mice, P388 leukemia ip, median survival T/C
Experiment: NCI In Vivo Anticancer Drug Screen. Data for tumor model P388 Leukemia (intraperitoneal) in B6D2F1 (BDF1) mice
Details: endpoint: median survival time, higher = longer survival
Method in brief: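 Antitumour effect was judged in vivo: survival in drug-treated mice, normalised to that of vehicle-dosed controls, gives the reported T/C.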

## COc1cc(NS(C)(=O)=O)ccc1Nc1c2ccccc2nc2ccccc12
dose: 0.25 mg/kg/injection, schedule: Q01DX009 (ip), vehicle: other
  T/C: 154 % of control
dose: 0.25 mg/kg/injection, schedule: Q01DX009 (ip), vehicle: saline
  T/C: 150 % of control
dose: 0.5 mg/kg/injection, schedule: Q01DX009 (ip), vehicle: other
  T/C: 161 % of control and 175 % of control
dose: 0.57 mg/kg/injection, schedule: Q01DX009 (ip), vehicle: Klucel (hydroxypropylcellulose) (HPC)
  T/C: 210 % of control
dose: 0.8 mg/kg/injection, schedule: Q01DX005 (ip), vehicle: other
  T/C: 182 % of control
dose: 0.8 mg/kg/injection, schedule: Q01DX005 (iv), vehicle: other
  T/C: 104 % of control and 109 % of control
dose: 0.8 mg/kg/injection, schedule: Q04DX003 (iv), vehicle: other
  T/C: 108 % of control
dose: 0.85 mg/kg/injection, schedule: Q01DX009 (ip), vehicle: Klucel (hydroxypropylcellulose) (HPC)
  T/C: 195 % of control
dose: 1.0 mg/kg/injection, schedule: Q01DX009 (ip), vehicle: other
  T/C: 175 % of control and 195 % of control
dose: 1.3 mg/kg/injection, schedule: Q01DX009 (ip), vehicle: Klucel (hydroxypropylcellulose) (HPC)
  T/C: 173 % of control
dose: 1.56 mg/kg/injection, schedule: Q01DX009 (ip), vehicle: Klucel (hydroxypropylcellulose) (HPC)
  T/C: 166 % of control
dose: 1.6 mg/kg/injection, schedule: Q01DX005 (ip), vehicle: other
  T/C: 202 % of control
dose: 1.6 mg/kg/injection, schedule: Q01DX005 (iv), vehicle: other
  T/C: 115 % of control and 120 % of control
dose: 1.6 mg/kg/injection, schedule: Q04DX003 (iv), vehicle: other
  T/C: 107 % of control
dose: 2.0 mg/kg/injection, schedule: Q01DX009 (ip), vehicle: Klucel (hydroxypropylcellulose) (HPC)
  T/C: 169 % of control
dose: 2.0 mg/kg/injection, schedule: Q01DX009 (ip), vehicle: other
  T/C: 193 % of control and 216 % of control
dose: 3.3 mg/kg/injection, schedule: Q01DX005 (ip), vehicle: other
  T/C: 220 % of control
dose: 3.3 mg/kg/injection, schedule: Q04DX003 (iv), vehicle: other
  T/C: 122 % of control
dose: 3.6 mg/kg/injection, schedule: Q04DX003 (ip), vehicle: clinical formulation
  T/C: 192 % of control
dose: 3.6 mg/kg/injection, schedule: Q04DX003 (ip), vehicle: other
  T/C: 215 % of control
dose: 4.12 mg/kg/injection, schedule: Q01DX009 (ip), vehicle: Klucel (hydroxypropylcellulose) (HPC)
  T/C: 227 % of control and 204 % of control
dose: 5.4 mg/kg/injection, schedule: Q04DX003 (ip), vehicle: clinical formulation
  T/C: 210 % of control
dose: 6.0 mg/kg/injection, schedule: Q04DX003 (ip), vehicle: clinical formulation
  T/C: 211 % of control
dose: 6.0 mg/kg/injection, schedule: Q04DX003 (ip), vehicle: other
  T/C: 169 % of control
dose: 6.25 mg/kg/injection, schedule: Q01DX009 (ip), vehicle: Klucel (hydroxypropylcellulose) (HPC)
  T/C: 236 % of control and 259 % of control and 272 % of control
dose: 6.5 mg/kg/injection, schedule: Q04DX003 (iv), vehicle: other
  T/C: 116 % of control
dose: 6.6 mg/kg/injection, schedule: Q04DX003 (ip), vehicle: other
  T/C: 236 % of control
dose: 6.6 mg/kg/injection, schedule: Q08DX002 (ip), vehicle: other
  T/C: 191 % of control
dose: 6.6 mg/kg/injection, schedule: Q08DX002 (iv), vehicle: other
  T/C: 118 % of control
dose: 7.0 mg/kg/injection, schedule: Q04DX003 (ip), vehicle: lactic acid
  T/C: 225 % of control and 263 % of control and 272 % of control
dose: 7.0 mg/kg/injection, schedule: Q04DX003 (ip), vehicle: saline with Tween-80
  T/C: 240 % of control
dose: 9.0 mg/kg/injection, schedule: Q04DX003 (ip), vehicle: clinical formulation
  T/C: 215 % of control
dose: 9.37 mg/kg/injection, schedule: Q01DX009 (ip), vehicle: Klucel (hydroxypropylcellulose) (HPC)
  T/C: 268 % of control and 104 % of control
dose: 10.0 mg/kg/injection, schedule: Q04DX003 (ip), vehicle: clinical formulation
  T/C: 248 % of control
dose: 10.0 mg/kg/injection, schedule: Q04DX003 (ip), vehicle: other
  T/C: 225 % of control and 272 % of control
dose: 10.0 mg/kg/injection, schedule: Q08DX002 (ip), vehicle: other
  T/C: 193 % of control
dose: 11.0 mg/kg/injection, schedule: Q04DX003 (ip), vehicle: lactic acid
  T/C: 291 % of control and 354 % of control and 541 % of control
dose: 11.0 mg/kg/injection, schedule: Q04DX003 (ip), vehicle: saline with Tween-80
  T/C: 295 % of control
dose: 12.5 mg/kg/injection, schedule: Q01DX009 (ip), vehicle: Klucel (hydroxypropylcellulose) (HPC)
  T/C: 260 % of control
dose: 15.0 mg/kg/injection, schedule: Q04DX003 (ip), vehicle: other
  T/C: 111 % of control
dose: 15.0 mg/kg/injection, schedule: Q04DX003 (iv), vehicle: other
  T/C: 157 % of control
dose: 15.0 mg/kg/injection, schedule: Q08DX002 (ip), vehicle: other
  T/C: 245 % of control
dose: 16.0 mg/kg/injection, schedule: Q04DX003 (ip), vehicle: lactic acid
  T/C: 190 % of control
dose: 16.0 mg/kg/injection, schedule: Q04DX003 (ip), vehicle: saline with Tween-80
  T/C: 377 % of control
dose: 16.7 mg/kg/injection, schedule: Q04DX003 (ip), vehicle: clinical formulation
  T/C: 118 % of control
dose: 22.6 mg/kg/injection, schedule: Q04DX003 (iv), vehicle: other
  T/C: 170 % of control
dose: 22.6 mg/kg/injection, schedule: Q08DX002 (iv), vehicle: other
  T/C: 190 % of control
dose: 26.0 mg/kg/injection, schedule: Q04DX003 (iv), vehicle: other
  T/C: 203 % of control
dose: 34.0 mg/kg/injection, schedule: Q04DX003 (iv), vehicle: other
  T/C: 200 % of control
dose: 34.0 mg/kg/injection, schedule: Q08DX002 (iv), vehicle: other
  T/C: 200 % of control
